US20240368104A1, “Novel Dialkoxynaphtho[2,3-C]Furan-1(3H)-One Derivatives and Pharmaceutical Composition For Preventing or Treating Respiratory Disease or SARS-COV-2 Infection Disease, Comprising Same” (priority 2021, published 2024)
Where two headings read alike, the source gives them in different places.

Key:
SARS-COV-2 = test: microbe, parasite or virus in culture; assay type: cell-based; parameters: SI (Selectivity Index, CC50/IC50): unit not given here; settings: for SI (Selectivity Index, CC50/IC50): SARS-COV-2, values >50 assumed to be 50; for IC50: read-out: SARS-COV-2 inhibition (IC50)
in vitro = settings: African green monkey
[1] = Severe acute respiratory syndrome coronavirus 2, Vero cells, 24 hours infection
[2] = Severe acute respiratory syndrome coronavirus 2, Vero, 24 h

Row | SMILES | SI (Selectivity Index, CC50/IC50) (SARS-COV-2) | IC50 (SARS-COV-2; [1]) [µM] | CC50 (in vitro) [µM] | IC50 (SARS-COV-2; [2]) [µM]
1 | COc1cc2cc3c(c(-c4ccc(N5CCC(F)(F)CC5)nc4)c2cc1OC)C(=O)OC3 [Example 122, 9-(6-(4,4-difluoropiperidin-1-yl)pyridin-3-yl)-6,7-dimethoxynaphtho[2,3-c]furan-1(3H)-one] | 512.00 | 0.17 | > 50 | 
2 | COc1cc2cc3c(c(-c4ccc(N(C)CCc5cn(C)c6ccccc56)nc4)c2cc1OC)C(=O)OC3 [Example 196, 6,7-dimethoxy-9-(6-(methyl(2-(1-methyl-1H-indol-3-yl)ethyl)amino)pyridin-3-yl)naphtho[2,3-c]furan-1(3H)-one] | 20.54 | 2.43 | > 50 | 
3 | COc1cc2cc3c(c(-c4cnc(Cl)c(N(C)C)c4)c2cc1OC)C(=O)OC3 [Example 201, 9-(6-chloro-5-(dimethylamino)pyridin-3-yl)-6,7-dimethoxynaphtho[2,3-c]furan-1(3H)-one] | 39.52 | 1.27 | > 50 | 
4 | COc1cc2cc3c(c(-c4ccc(C(=O)C(F)(F)F)cc4)c2cc1OC)C(=O)OC3 [Example 210, 6,7-dimethoxy-9-(4-(2,2,2-trifluoroacetyl)phenyl)naphtho[2,3-c]furan-1(3H)-one] | 4.91 |  | > 50 | 10.2
5 | COc1cc2cc3c(c(-c4cnc5ccc(N6CCOCC6)nn45)c2cc1OC)C(=O)OC3 [Example 220, 6,7-dimethoxy-9-(6-morpholinoimidazo[1,2-b]pyridazin-3-yl)naphtho[2,3-c]furan-1(3H)-one] | 1.00 | > 50 | > 50 | 
6 | COc1cc2cc3c(c(-c4cnc(N(C)CC5CC5)nc4)c2cc1OC)C(=O)OC3 [Example 68, 9-(2-((cyclopropylmethyl)(methyl)amino)pyrimidin-5-yl)-6,7-dimethoxynaphtho[2,3-c]furan-1(3H)-one] | 270.89 | 0.18 | > 50 | 
7 | COc1cc2cc3c(c(-c4cnc(NC5CC5)nc4)c2cc1OC)C(=O)OC3 [Example 69, 9-(2-(cyclopropylamino)pyrimidin-5-yl)-6,7-dimethoxynaphtho[2,3-c]furan-1(3H)-one] | 1.00 | > 50 | > 50 | 
8 | COc1cc2cc3c(c(-c4cnc(N5CCC6(CC5)OCCO6)nc4)c2cc1OC)C(=O)OC3 [Example 89, 9-(2-(1,4-dioxa-8-azaspiro[4.5]decan-8-yl)pyrimidin-5-yl)-6,7-dimethoxynaphtho[2,3-c]furan-1(3H)-one] | 1.00 | > 50 | > 50 | 
9 | COc1cc2cc3c(c(-c4cccc(N5CCCC5)c4)c2cc1OC)C(=O)OC3.Cl [Example 252, 6,7-dimethoxy-9-(3-(pyrrolidin-1-yl)phenyl)naphtho[2,3-c]furan-1(3H)-one] | 1 |  | > 50 | > 50
10 | CCN(CC)CCNc1ncc(-c2c3c(cc4cc(OC)c(OC)cc24)COC3=O)cn1 [Example 58, 9-(2-((2-(diethylamino)ethyl)amino)pyrimidin-5-yl)-6,7-dimethoxynaphtho[2,3-c]furan-1(3H)-one] | 1.66 | 30.1 | > 50 | 
11 | COc1cc2cc3c(c(-c4ccc(N(C)C(=O)C(C)(C)C)nc4)c2cc1OC)C(=O)OC3 [Example 233, N-(5-(6,7-dimethoxy-3-oxo-1,3-dihydronaphtho[2,3-c]furan-4-yl)pyridin-2-yl)-N-methylpivalamide] | 1.00 | > 50 | > 50 | 
12 | CCN(Cc1cccnc1)c1ccc(-c2c3c(cc4cc(OC)c(OC)cc24)COC3=O)cc1 [Example 254, 9-(4-(ethyl(pyridin-3-ylmethyl)amino)phenyl)-6,7-dimethoxynaphtho[2,3-c]furan-1(3H)-one] | 12.17 | 4.11 | > 50 | 
13 | COc1cc2cc3c(c(-c4cc5c(cc4OC(=O)[C@@H]4CCCN4)OCO5)c2cc1OC)C(=O)OC3 [Example 273, 6-(6,7-dimethoxy-3-oxo-1,3-dihydronaphtho[2,3-c]furan-4-yl)benzo[d][1,3]dioxol-5-yl L-prolinate] | 36.52 | 1.37 | > 50 | 
14 | COc1cc2cc3c(c(-c4ccc(N5CCc6sccc6C5)nc4)c2cc1OC)C(=O)OC3 [Example 156, 9-(6-(6,7-dihydrothien[3,2-c]pyridin-5 (4H)-yl)pyridin-3-yl)-6,7-dimethoxynaphtho[2,3-c]furan-1(3H)-one] | 48.93 | 1.02 | > 50 | 
15 | COc1cc2cc3c(c(-c4cnc(N(C)C)cn4)c2cc1OC)C(=O)OC3 [Example 31, 9-(5-(dimethylamino)pyrazin-2-yl)-6,7-dimethoxynaphtho[2,3-c]furan-1(3H)-one] | 11.86 | 4.22 | > 50 | 
16 | COc1cc2cc3c(c(-c4ccc5c(O)cc(C)nc5c4C)c2cc1OC)C(=O)OC3 [Example 146, 9-(4-hydroxy-2,8-dimethylquinolin-7-yl)-6,7-dimethoxynaphtho[2,3-c]furan-1(3H)-one] | 1.0 | > 50 | > 50 | 
17 | CCC(C)CNc1ncc(-c2c3c(cc4cc(OC)c(OC)cc24)COC3=O)cn1 (stereo not drawn) [Example 64, 6,7-dimethoxy-9-(2-((2-methylbutyl)amino)pyrimidin-5-yl)naphtho[2,3-c]furan-1(3H)-one] | 1.00 | > 50 | > 50 | 
18 | COc1cc2cc3c(c(-c4cc5c(cc4OC(C)=O)OCO5)c2cc1OC)C(=O)OC3 [Example 274, 6-(6,7-dimethoxy-3-oxo-1,3-dihydronaphtho[2,3-c]furan-4-yl)benzo[d][1,3]dioxol-5-yl acetate] | 19.61 | 2.55 | > 50 | 
19 | CCN(Cc1ccccc1C(F)(F)F)c1ccc(-c2c3c(cc4cc(OC)c(OC)cc24)COC3=O)cn1 [Example 209, 9-(6-(ethyl(2-(trifluoromethyl)benzyl)amino)pyridin-3-yl)-6,7-dimethoxynaphtho[2,3-c]furan-1(3H)-one] | 14.52 | 3.44 | > 50 | 
20 | COc1cc2cc3c(c(-c4ccc(N(C)C5CCCCC5)nc4)c2cc1OC)C(=O)OC3 [Example 175, 9-(6-(cyclohexyl(methyl)amino)pyridin-3-yl)-6,7-dimethoxynaphtho[2,3-c]furan-1(3H)-one] | 42.02 | 1.19 | > 50 | 
21 | CCCN(CCO)c1ncc(-c2c3c(cc4cc(OC)c(OC)cc24)COC3=O)cn1.Cl [Example 77, 9-(2-((2-hydroxyethyl)(propyl)amino)pyrimidin-5-yl)-6,7-dimethoxynaphtho[2,3-c]furan-1(3H)-one hydrochloride] | 1.58 |  | > 50 | 31.6
22 | COc1cc2cc3c(c(-c4cnc(N5CC(C)(C)OC(C)(C)C5)nc4)c2cc1OC)C(=O)OC3 [Example 114, 6,7-dimethoxy-9-(2-(2,2,6,6-tetramethylmorpholino)pyrimidin-5-yl)naphtho[2,3-c]furan-1(3H)-one] | 1.0 | > 50 | > 50 | 
23 | COc1cc2cc3c(c(-c4ccc(N5CC(C)CC(C)C5)nc4)c2cc1OC)C(=O)OC3 (stereo not drawn) [Example 127, 9-(6-(3,5-dimethylpiperidin-1-yl)pyridin-3-yl)-6,7-dimethoxynaphtho[2,3-c]furan-1(3H)-one] | 45.29 | 1.1 | > 50 | 
24 | COc1cc2cc3c(c(-c4cnc(N5CCC[C@H]5C(N)=O)nc4)c2cc1OC)C(=O)OC3 [Example 49, (S)-1-(5-(6,7-dimethoxy-3-oxo-1,3-dihydronaphtho[2,3-c]furan-4-yl)pyrimidin-2-yl) pyrrolidin-2-carboxamide] | 1.00 | > 50 | > 50 | 
25 | COc1cc2cc3c(c(-c4ccc(N5CCC(N(C)C)CC5)nc4)c2cc1OC)C(=O)OC3.Cl [Example 238, 9-(6-(4-(dimethylamino)piperidin-1-yl)pyridin-3-yl)-6,7-dimethoxynaphtho[2,3-c]furan-1(3H)-one] | 2.84 |  | > 50 | 17.6
26 | COc1cc2cc3c(c(-c4cnc(N5CCc6ccccc6[C@@H]5c5ccccc5)nc4)c2cc1OC)C(=O)OC3 [Example 151, (S)-6,7-dimethoxy-9-(2-(1-phenyl-3,4-dihydroisoquinolin-2 (1H)-yl)pyrimidin-5-yl)naphtho[2,3-c]furan-1(3H)-one] | 1.0 | > 50 | > 50 | 
27 | COc1cc2cc3c(c(-c4cnc(N(C)CC(OC)OC)nc4)c2cc1OC)C(=O)OC3 [Example 94, 9-(2-((2,2-dimethoxyethyl)(methyl)amino)pyrimidin-5-yl)-6,7-dimethoxynaphtho[2,3-c]furan-1(3H)-one] | 10.16 | 4.92 | > 50 | 
28 | COc1cc2cc3c(c(N4CCN(c5ncc(Br)cn5)CC4)c2cc1OC)C(=O)OC3 [Example 131, 9-(4-(5-bromopyrimidin-2-yl)piperazin-1-yl)-6,7-dimethoxynaphtho[2,3-c]furan-1(3H)-one] | 1.44 | 34.6 | > 50 | 
29 | CCN(c1ccc(-c2c3c(cc4cc(OC)c(OC)cc24)COC3=O)cn1)c1ncn(CC)n1 [Example 207, 9-(6-(ethyl(1-ethyl-1H-1,2,4-triazol-3-yl)amino)pyridin-3-yl)-6,7-dimethoxynaphtho[2,3-c]furan-1(3H)-one] | 7.57 | 6.6 | > 50 | 
